Assay results as given in ChEMBL document CHEMBL4339212, “Novel 7-formyl-naphthyridyl-ureas derivatives as potential selective FGFR4 inhibitors: Design, synthesis, and biological activity studies” (Bioorg Med Chem, 2019).

Columns and labels:
[1] = target: Fibroblast growth factor receptor 1 (Homo sapiens, UniProt P11362); assay: Inhibition of FGFR1 (unknown origin) incubated for 60 mins by caliper microfluidic mobility shift technology based assay
[2] = system: SK-HEP1; assay: Antiproliferative activity against human SKHEP1 cells without FGFR4 gene amplification assessed as inhibition of cell proliferation incubated for 72 hrs by CellTiter-Glo method; assay type: functional, cell-based; details: SK-HEP1, 72 h
[3] = system: Hep 3B2; assay: cells; details: Homo sapiens, Hep3B, 72 h
[4] = system: Huh-7; assay: cells; details: Homo sapiens, Huh-7, 72 h
[5] = AUC in Sprague-Dawley rat at 5 mg/kg, ig measured after 5 mins to 24 hrs by LC-MS analysis; assay type: ADME, organism-based; parameters: dose 5 mg/kg, time 0.083-24 hr, route […]; details: in vivo, po
[6] = Cmax in Sprague-Dawley rat at 5 mg/kg, ig measured after 5 mins to 24 hrs by LC-MS analysis; assay type: ADME, organism-based; parameters: dose 5 mg/kg, route […]; details: in vivo, po
[7] = Half life in Sprague-Dawley rat at 5 mg/kg, ig measured after 5 mins to 24 hrs by LC-MS analysis; assay type: ADME, organism-based; details: in vivo, po
[8] = Mean residence time in Sprague-Dawley rat at 5 mg/kg, ig measured after 5 mins to 24 hrs by LC-MS analysis; assay type: ADME, organism-based; details: in vivo, po
[9] = system: Huh-7; assay: Antitumor activity against human HuH7 cells xenografted in nude BALB/c mouse assessed as inhibition of tumor growth at 30 mg/kg bid for 14 days and measured twice per week relative to untreated control; assay type: functional; details: Huh-7, 336 h, read-out: TGI
[10] = system: Hep 3B2; assay: Antitumor activity against human Hep3B cells xenografted in nude BALB/c mouse assessed as inhibition of tumor growth at 10 mg/kg bid for 14 days and measured twice per week relative to untreated control; assay type: functional; details: 336 h, read-out: TGI

Fibroblast growth factor receptor 1, sequence (P11362 whole entry): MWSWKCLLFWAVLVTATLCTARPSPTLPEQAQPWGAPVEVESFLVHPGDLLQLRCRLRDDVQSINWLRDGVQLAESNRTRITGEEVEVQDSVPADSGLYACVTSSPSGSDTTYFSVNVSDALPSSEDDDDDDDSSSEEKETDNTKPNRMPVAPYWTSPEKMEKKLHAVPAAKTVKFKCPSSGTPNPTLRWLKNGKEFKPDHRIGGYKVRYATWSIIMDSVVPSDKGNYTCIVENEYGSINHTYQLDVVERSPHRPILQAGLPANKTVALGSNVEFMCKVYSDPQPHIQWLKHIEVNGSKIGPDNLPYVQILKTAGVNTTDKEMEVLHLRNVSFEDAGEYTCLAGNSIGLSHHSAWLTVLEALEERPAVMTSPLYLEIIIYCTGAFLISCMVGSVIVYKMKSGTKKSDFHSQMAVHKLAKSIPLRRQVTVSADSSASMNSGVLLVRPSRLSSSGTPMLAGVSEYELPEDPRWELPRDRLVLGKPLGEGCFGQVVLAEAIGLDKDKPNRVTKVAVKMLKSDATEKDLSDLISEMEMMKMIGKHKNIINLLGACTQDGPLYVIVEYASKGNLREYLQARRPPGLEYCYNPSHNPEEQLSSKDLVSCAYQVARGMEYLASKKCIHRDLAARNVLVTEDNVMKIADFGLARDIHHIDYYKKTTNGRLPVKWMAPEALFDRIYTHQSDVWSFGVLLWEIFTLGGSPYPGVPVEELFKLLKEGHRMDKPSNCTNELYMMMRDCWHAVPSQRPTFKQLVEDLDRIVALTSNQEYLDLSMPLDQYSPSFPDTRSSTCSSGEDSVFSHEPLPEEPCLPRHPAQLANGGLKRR

SMILES | IC50 [1] [nM] | IC50 [2] [nM] | IC50 [3] [nM] | IC50 [4] [nM] | AUC [5] [ng·h/mL] | Cmax [6] [ng/mL] | half-life [7] [h] | MRT [8] [h] | inhibition in vivo at 30 mg/kg [9] [%] | inhibition in vivo at 10 mg/kg [10] [%]
CO[C@@H]1CCC[C@H]1Nc1cc(NC(=O)N2CCCc3cc(CN4CCOCC4=O)c(C=O)nc32)ncc1C#N | > 10000 | > 10000 | 1 | 2.7 | – | – | – | – | – | –
COC[C@@H]1CCCN1c1cc(NC(=O)N2CCCc3cc(CN4CCOCC4=O)c(C=O)nc32)ncc1C#N | > 10000 | > 10000 | 22.9 | 65.3 | – | – | – | – | – | –
COC[C@@H](C)Oc1cc(NC(=O)N2CCCc3cc(CN4CCCCOC4=O)c(C=O)nc32)ncc1C#N | > 10000 | > 10000 | 2.2 | 4.6 | – | – | – | – | – | –
COCCNc1cc(NC(=O)N2CCCc3cc(CN4CC[C@H](OC)C4=O)c(C=O)nc32)ncc1C#N | > 10000 | > 10000 | 2.3 | 9 | 11300 | – | – | – | – | –
CO[C@H]1CCN(c2cc(NC(=O)N3CCCc4cc(CN5C(=O)OC[C@@H]5C)c(C=O)nc43)ncc2C#N)C1 | > 10000 | > 10000 | 39.3 | 34.6 | – | – | – | – | – | –
N#Cc1cnc(NC(=O)N2CCCc3cc(CN4CCOCC4=O)c(C=O)nc32)cc1S[C@@H]1CCOC1 | > 10000 | > 10000 | 22.7 | 50.1 | 6780 | – | – | – | – | –
COc1ccncc1Nc1cc(NC(=O)N2CCCc3cc(CN4CCOCC4=O)c(C=O)nc32)ncc1C#N | > 10000 | > 10000 | 69 | 20.7 | – | – | – | – | – | –
CO[C@H]1CCOC[C@@H]1Oc1cc(NC(=O)N2CCCc3cc(CN4CCOCC4=O)c(C=O)nc32)ncc1C#N | > 10000 | > 10000 | 10.9 | 40.8 | – | – | – | – | – | –
N#Cc1cnc(NC(=O)N2CCCc3cc(CN4CCCCOC4=O)c(C=O)nc32)cc1N[C@@H]1CCOC1 | > 10000 | > 10000 | 2.3 | 4.9 | – | – | – | – | – | –
COCCSc1cc(NC(=O)N2CCCc3cc(CN4CCOCC4=O)c(C=O)nc32)ncc1C#N | > 10000 | > 10000 | 20.8 | 32.2 | – | – | – | – | – | –
COCCNc1cc(NC(=O)N2CCCc3cc(CN4CCN(C)CC4=O)c(C=O)nc32)ncc1C#N [FGF401] | – | – | 8.8 | 16.3 | – | – | – | – | 52.5 | 85.9

More lines, in order of falling IC50 [3], values ahead:

IC50 [1] [nM] | IC50 [2] [nM] | IC50 [3] [nM] | IC50 [4] [nM] | AUC [5] [ng·h/mL] | Cmax [6] [ng/mL] | half-life [7] [h] | MRT [8] [h] | SMILES | inhibition in vivo at 30 mg/kg [9] [%] | inhibition in vivo at 10 mg/kg [10] [%]
> 10000 | > 10000 | 93.8 | 297 | – | – | – | – | CN(C)C1CCN(c2cc(NC(=O)N3CCCc4cc(CN5CCOCC5=O)c(C=O)nc43)ncc2C#N)C1 (stereo not drawn) | – | –
> 10000 | > 10000 | 46 | 69 | – | – | – | – | COc1ccccc1Oc1cc(NC(=O)N2CCCc3cc(CN4CCOCC4=O)c(C=O)nc32)ncc1C#N | – | –
> 10000 | > 10000 | 38.7 | 29.6 | – | – | – | – | CO[C@H]1CCN(c2cc(NC(=O)N3CCCc4cc(CN5CCOC5=O)c(C=O)nc43)ncc2C#N)C1 | – | –
> 10000 | > 10000 | 27.7 | 51.8 | – | – | – | – | COCCOc1cc(NC(=O)N2CCCc3cc(CN4CCOCC4=O)c(C=O)nc32)ncc1C#N | – | –
> 10000 | > 10000 | 24.9 | 27.5 | 14700 | 3360 | 1.2 | 2.6 | CO[C@H]1CCN(c2cc(NC(=O)N3CCCc4cc(CN5CCOCC5=O)c(C=O)nc43)ncc2C#N)C1 | – | –
> 10000 | > 10000 | 14.5 | 36.1 | 1950 | – | – | – | N#Cc1cnc(NC(=O)N2CCCc3cc(CN4CCOCC4=O)c(C=O)nc32)cc1S[C@H]1CCOC1 | – | –
> 10000 | > 10000 | 13.6 | 40.5 | – | – | – | – | COC[C@H](C)Nc1cc(NC(=O)N2CCCc3cc(CN4CC[C@H](OC)C4=O)c(C=O)nc32)ncc1C#N | – | –
> 10000 | > 10000 | 13.3 | 11.8 | – | – | – | – | CO[C@@H]1CCN(c2cc(NC(=O)N3CCCc4cc(CN5C(=O)OC[C@@H]5C)c(C=O)nc43)ncc2C#N)C1 | – | –
> 10000 | > 10000 | 9.9 | 10.2 | – | – | – | – | CO[C@@H]1CCN(c2cc(NC(=O)N3CCCc4cc(CN5CCOC5=O)c(C=O)nc43)ncc2C#N)C1 | – | –
> 10000 | > 10000 | 8.9 | 17.3 | – | – | – | – | COCCNc1cc(NC(=O)N2CCCc3cc(CN4CCOCC4=O)c(C=O)nc32)ncc1C#N | – | –
> 10000 | > 10000 | 3.7 | 7.2 | – | – | – | – | N#Cc1cnc(NC(=O)N2CCCc3cc(CN4CCCCOC4=O)c(C=O)nc32)cc1N[C@H]1CCOC1 | – | –
> 10000 | > 10000 | 2.9 | 7.8 | – | – | – | – | COC[C@@H](C)Oc1cc(NC(=O)N2CCCc3cc(CN4CCOCC4=O)c(C=O)nc32)ncc1C#N | – | –
> 10000 | > 10000 | 1.9 | 8.3 | 12300 | – | – | – | COCCNc1cc(NC(=O)N2CCCc3cc(CN4CC[C@@H](OC)C4=O)c(C=O)nc32)ncc1C#N | – | –
> 10000 | > 10000 | 1.8 | 5.4 | – | – | – | – | CO[C@@H]1CCN(Cc2cc3c(nc2C=O)N(C(=O)Nc2cc(N[C@@H]4CCOC4)c(C#N)cn2)CCC3)C1=O | – | –
